The values that follow come from ChEMBL document CHEMBL5247683 (ACS Med Chem Lett, 2023).

One series concerns the target JAK1/TYK2 (Homo sapiens, UniProt P23458+P29597). In words: Inhibition of JAK1/TYK2 in human M07E cells assessed as reduction of IFN alpha stimulated STAT phosphorylation preincubated for 30 mins followed by IFN alpha stimulation for 15 mins by flow cytometry method. In kind it is cell-based.
For series [1], the target named is T1, JAK3/JAK1 (Homo sapiens, UniProt P23458+P52333). In kind it is tissue-based, Blood.
Description: Inhibition of JAK1/JAK3 in human blood assessed as reduction of IL-2 stimulated STAT phosphorylation preincubated for 30 mins followed by IL-2 stimulation for 15 mins by flow cytometry method
Series [2] deals with Tyrosine-protein kinase JAK1 (Homo sapiens, UniProt P23458). In words: Inhibition of GST-fused JAK1 (866 to 1154 residues) (unknown origin) using FITC-AhxKKSRGDYMTMQIG-NH2 peptide as substrate incubated for 60 mins in presence of ATP by Janus kinase assay.
For series [3], the target named is Tyrosine-protein kinase JAK2 (Homo sapiens, UniProt O60674). In words: Inhibition of GST-fused JAK2 (808 to 1132 residues) (unknown origin) using Carboxyfluorescein-Ahx-GGEEEEYFELVKKKK peptide as substrate incubated for 60 mins in presence of ATP by Janus kinase assay.
In series [4] the target is T2, Tyrosine-protein kinase JAK3 (Homo sapiens, UniProt P52333).
T2 sequence (P52333 whole entry): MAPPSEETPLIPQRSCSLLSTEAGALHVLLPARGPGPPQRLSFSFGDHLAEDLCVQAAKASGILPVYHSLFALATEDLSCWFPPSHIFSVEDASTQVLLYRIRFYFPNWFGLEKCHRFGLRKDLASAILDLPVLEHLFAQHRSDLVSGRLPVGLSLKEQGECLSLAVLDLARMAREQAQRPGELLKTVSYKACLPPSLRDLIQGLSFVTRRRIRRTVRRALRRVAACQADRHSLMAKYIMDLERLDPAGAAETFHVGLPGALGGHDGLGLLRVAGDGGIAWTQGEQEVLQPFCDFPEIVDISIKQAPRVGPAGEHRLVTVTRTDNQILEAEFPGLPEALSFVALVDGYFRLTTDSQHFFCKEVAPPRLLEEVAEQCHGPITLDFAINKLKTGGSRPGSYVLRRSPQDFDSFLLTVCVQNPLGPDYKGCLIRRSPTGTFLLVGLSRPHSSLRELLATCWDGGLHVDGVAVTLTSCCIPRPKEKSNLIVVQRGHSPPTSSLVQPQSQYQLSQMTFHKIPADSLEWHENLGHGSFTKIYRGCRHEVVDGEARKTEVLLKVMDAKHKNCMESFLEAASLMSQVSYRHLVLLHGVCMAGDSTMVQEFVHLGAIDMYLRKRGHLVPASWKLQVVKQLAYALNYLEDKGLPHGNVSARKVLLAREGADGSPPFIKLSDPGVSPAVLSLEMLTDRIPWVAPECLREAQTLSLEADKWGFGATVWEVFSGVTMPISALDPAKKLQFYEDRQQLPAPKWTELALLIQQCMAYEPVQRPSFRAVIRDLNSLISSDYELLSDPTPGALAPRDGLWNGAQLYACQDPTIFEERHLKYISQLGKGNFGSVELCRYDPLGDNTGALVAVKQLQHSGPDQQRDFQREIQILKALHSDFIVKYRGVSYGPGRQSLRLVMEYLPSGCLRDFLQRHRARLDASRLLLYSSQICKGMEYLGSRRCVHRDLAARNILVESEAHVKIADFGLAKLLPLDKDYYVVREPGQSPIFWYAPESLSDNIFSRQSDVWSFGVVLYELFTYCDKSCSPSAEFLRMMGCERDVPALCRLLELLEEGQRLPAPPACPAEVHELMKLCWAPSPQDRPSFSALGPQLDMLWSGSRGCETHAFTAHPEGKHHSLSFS
In words: Inhibition of GST-fused JAK3 (811 to 1124 residues) (unknown origin) using Carboxyfluorescein-Ahx-GGEEEEYFELVKKKK peptide as substrate incubated for 60 mins in presence of ATP by Janus kinase assay.

The target in series [5] is T1, JAK3/JAK1. In words: Inhibition of JAK1/JAK3 in human M07E cells assessed as reduction of IL-15 stimulated STAT phosphorylation preincubated for 30 mins followed by IL-15 stimulation for 15 mins by flow cytometry method. In kind it is cell-based. In general terms: Flow cytometry measures light scatter and fluorescence of single cells or particles in a stream.
For series [6], the target named is Non-receptor tyrosine-protein kinase TYK2 (Homo sapiens, UniProt P29597). In words: Inhibition of GST-fused Tyk2 (888 to 1187 residues) (unknown origin) using FITC-AhxKKSRGDYMTMQIG-NH2 peptide as substrate incubated for 60 mins in presence of ATP by Janus kinase assay.
Series [7] can be described thus: Dissociation constant, pKa of compound. Format: physicochemical.
Series [8] has as its target Glycogen synthase kinase-3 beta (Homo sapiens, UniProt P49841). In words: Inhibition of GSK3B (unknown origin).
The target of series [9] is Vascular endothelial growth factor receptor 2 (Homo sapiens, UniProt P35968). In words: Inhibition of KDR (unknown origin).
Another series addresses T3, Aurora kinase A (Homo sapiens, UniProt O14965).
T3 sequence (O14965 whole entry): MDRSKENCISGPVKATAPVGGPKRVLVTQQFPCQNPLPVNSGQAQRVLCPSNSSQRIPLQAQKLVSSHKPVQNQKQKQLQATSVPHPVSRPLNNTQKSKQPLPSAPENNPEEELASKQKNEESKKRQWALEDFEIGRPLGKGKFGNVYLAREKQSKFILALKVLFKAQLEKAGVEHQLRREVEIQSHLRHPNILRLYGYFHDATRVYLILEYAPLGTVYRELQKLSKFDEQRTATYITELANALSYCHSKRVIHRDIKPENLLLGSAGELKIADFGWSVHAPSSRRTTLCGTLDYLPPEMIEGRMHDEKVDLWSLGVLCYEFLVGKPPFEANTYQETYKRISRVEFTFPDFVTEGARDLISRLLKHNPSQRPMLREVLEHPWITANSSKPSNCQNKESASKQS
In words: Inhibition of AuroraA (unknown origin).

The target of series [10] is T4, Interleukin-1 receptor-associated kinase 4 (Homo sapiens, UniProt Q9NWZ3).
T4 sequence (Q9NWZ3 whole entry): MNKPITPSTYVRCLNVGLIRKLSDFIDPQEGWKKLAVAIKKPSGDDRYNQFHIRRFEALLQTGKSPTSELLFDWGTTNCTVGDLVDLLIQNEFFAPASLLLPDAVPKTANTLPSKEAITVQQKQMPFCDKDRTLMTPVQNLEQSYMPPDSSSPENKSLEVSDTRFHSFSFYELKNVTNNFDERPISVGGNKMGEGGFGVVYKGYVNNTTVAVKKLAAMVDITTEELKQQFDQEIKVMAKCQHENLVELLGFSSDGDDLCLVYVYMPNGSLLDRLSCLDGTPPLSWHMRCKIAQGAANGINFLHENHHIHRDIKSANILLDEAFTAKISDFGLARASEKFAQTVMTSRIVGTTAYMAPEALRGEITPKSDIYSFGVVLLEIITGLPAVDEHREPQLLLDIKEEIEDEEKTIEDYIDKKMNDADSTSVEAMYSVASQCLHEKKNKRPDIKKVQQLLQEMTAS
In words: Inhibition of IRAK4 (unknown origin).

The target in series [11] is T5, Receptor-type tyrosine-protein kinase FLT3 (Homo sapiens, UniProt P36888).
T5 sequence (P36888 whole entry): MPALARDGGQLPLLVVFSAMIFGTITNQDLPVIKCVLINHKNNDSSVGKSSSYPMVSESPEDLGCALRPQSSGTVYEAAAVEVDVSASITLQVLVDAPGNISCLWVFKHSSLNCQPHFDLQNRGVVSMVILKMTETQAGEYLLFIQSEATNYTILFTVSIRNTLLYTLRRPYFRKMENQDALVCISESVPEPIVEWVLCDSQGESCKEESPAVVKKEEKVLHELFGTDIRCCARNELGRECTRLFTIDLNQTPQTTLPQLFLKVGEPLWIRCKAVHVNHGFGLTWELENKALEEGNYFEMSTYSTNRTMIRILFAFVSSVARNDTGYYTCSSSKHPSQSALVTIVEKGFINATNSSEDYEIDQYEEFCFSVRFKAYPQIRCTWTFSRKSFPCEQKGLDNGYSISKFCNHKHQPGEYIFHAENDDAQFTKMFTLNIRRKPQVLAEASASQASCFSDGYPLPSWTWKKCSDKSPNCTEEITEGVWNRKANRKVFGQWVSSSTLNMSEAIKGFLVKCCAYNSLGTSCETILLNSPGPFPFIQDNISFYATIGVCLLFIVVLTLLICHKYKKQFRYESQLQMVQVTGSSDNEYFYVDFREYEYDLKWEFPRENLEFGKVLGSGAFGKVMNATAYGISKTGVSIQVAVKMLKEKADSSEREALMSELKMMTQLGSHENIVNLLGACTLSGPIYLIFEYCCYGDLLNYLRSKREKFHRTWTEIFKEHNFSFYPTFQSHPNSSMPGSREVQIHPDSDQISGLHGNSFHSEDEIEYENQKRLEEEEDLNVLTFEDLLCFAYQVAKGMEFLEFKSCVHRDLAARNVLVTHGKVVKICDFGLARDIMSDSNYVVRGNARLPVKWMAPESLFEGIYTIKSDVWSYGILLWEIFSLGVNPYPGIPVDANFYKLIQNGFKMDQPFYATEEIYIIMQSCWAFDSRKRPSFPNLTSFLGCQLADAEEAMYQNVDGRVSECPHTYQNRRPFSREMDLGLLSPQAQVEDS
In words: Inhibition of FLT3 (unknown origin).

Series [12] concerns the target T6, Serine/threonine-protein kinase 4 (Homo sapiens, UniProt Q13043).
T6 sequence (Q13043 whole entry): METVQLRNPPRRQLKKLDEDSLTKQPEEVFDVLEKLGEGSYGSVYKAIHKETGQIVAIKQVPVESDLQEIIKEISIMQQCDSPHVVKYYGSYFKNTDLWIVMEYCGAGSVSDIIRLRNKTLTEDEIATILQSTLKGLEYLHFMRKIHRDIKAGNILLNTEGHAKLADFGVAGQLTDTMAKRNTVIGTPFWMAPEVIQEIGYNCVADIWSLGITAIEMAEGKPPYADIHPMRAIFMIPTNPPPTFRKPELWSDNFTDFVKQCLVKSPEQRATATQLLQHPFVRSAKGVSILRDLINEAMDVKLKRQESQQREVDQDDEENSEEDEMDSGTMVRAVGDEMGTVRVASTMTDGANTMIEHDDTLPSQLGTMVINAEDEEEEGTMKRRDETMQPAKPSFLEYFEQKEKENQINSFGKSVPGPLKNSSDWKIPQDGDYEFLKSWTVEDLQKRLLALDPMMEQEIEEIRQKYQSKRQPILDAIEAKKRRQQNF
In words: Inhibition of STK4 (unknown origin).

Series [13] concerns the target Tyrosine-protein kinase Lck (Homo sapiens, UniProt P06239). In words: Inhibition of LCK (unknown origin).
Series [14] is described as follows: Inhibition of p70S6K (unknown origin). Details: species or system Homo sapiens.
The nature of the next series: in vitro. As to conditions: human, liver microsomes. (Liver microsomes are vesicles of endoplasmic reticulum, rich in cytochrome P450 enzymes.)

Chain of Tyrosine-protein kinase JAK2 (O60674 whole entry, the tested form may be a part): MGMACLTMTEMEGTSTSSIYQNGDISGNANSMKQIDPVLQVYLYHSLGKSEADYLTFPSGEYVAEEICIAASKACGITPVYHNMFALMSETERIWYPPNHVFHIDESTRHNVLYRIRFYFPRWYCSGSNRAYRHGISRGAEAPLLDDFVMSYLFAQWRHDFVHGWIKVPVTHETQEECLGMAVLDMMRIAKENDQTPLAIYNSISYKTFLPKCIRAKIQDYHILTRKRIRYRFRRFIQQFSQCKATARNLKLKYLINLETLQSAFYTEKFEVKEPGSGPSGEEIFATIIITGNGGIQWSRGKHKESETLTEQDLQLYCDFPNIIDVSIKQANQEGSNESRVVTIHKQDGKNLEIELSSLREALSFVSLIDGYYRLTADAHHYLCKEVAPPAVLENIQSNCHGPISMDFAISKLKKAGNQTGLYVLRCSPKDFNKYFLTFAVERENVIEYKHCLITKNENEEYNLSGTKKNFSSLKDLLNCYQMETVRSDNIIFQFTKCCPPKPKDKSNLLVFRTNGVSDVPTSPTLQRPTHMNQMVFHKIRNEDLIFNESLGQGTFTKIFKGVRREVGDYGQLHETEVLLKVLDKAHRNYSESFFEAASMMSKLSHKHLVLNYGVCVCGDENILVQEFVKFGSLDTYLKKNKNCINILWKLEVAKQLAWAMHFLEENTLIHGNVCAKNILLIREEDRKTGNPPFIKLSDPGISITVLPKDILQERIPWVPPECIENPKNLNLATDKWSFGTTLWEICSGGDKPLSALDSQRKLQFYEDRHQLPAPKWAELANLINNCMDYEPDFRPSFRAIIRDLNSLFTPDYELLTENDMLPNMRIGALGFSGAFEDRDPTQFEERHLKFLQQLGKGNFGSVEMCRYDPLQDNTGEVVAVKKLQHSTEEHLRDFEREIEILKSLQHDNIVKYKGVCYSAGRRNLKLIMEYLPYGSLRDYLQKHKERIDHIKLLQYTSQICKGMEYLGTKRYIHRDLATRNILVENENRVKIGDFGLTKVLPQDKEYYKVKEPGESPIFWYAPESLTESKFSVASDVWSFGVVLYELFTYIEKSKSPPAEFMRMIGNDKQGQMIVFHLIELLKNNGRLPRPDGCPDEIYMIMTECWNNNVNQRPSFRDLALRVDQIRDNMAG
Chain of Non-receptor tyrosine-protein kinase TYK2 (P29597 whole entry, the tested form may be a part): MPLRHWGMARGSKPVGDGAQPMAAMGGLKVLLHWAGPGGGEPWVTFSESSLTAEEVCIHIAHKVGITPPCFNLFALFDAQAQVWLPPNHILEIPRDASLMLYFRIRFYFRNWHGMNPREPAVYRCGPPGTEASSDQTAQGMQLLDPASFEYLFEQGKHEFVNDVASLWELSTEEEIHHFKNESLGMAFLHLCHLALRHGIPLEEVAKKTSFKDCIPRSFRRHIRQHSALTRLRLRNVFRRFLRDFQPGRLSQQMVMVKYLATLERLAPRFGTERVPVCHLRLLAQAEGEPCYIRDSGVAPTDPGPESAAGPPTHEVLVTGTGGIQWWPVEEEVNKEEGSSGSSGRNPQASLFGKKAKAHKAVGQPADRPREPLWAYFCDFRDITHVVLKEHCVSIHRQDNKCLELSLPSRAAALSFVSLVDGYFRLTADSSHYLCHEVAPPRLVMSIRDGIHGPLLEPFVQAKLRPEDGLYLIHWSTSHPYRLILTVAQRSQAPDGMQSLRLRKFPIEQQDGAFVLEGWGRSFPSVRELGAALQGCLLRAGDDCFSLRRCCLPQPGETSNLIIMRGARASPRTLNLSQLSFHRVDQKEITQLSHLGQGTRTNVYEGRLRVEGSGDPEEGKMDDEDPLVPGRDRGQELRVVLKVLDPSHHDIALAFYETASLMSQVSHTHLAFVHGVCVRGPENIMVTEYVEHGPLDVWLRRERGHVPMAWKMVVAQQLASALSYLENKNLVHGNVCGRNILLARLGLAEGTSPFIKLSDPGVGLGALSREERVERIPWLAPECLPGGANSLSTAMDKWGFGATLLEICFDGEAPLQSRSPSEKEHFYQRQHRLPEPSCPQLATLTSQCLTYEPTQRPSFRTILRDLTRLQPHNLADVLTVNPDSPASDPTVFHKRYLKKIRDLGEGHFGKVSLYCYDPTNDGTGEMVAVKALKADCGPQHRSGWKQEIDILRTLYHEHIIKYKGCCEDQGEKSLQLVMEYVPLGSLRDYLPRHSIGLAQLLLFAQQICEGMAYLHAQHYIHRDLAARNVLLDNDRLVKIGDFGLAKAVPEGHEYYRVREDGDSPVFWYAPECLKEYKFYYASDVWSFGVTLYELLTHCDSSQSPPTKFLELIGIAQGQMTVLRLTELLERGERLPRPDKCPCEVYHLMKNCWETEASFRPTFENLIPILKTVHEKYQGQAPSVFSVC
Chain of JAK1/TYK2 (P23458 whole entry): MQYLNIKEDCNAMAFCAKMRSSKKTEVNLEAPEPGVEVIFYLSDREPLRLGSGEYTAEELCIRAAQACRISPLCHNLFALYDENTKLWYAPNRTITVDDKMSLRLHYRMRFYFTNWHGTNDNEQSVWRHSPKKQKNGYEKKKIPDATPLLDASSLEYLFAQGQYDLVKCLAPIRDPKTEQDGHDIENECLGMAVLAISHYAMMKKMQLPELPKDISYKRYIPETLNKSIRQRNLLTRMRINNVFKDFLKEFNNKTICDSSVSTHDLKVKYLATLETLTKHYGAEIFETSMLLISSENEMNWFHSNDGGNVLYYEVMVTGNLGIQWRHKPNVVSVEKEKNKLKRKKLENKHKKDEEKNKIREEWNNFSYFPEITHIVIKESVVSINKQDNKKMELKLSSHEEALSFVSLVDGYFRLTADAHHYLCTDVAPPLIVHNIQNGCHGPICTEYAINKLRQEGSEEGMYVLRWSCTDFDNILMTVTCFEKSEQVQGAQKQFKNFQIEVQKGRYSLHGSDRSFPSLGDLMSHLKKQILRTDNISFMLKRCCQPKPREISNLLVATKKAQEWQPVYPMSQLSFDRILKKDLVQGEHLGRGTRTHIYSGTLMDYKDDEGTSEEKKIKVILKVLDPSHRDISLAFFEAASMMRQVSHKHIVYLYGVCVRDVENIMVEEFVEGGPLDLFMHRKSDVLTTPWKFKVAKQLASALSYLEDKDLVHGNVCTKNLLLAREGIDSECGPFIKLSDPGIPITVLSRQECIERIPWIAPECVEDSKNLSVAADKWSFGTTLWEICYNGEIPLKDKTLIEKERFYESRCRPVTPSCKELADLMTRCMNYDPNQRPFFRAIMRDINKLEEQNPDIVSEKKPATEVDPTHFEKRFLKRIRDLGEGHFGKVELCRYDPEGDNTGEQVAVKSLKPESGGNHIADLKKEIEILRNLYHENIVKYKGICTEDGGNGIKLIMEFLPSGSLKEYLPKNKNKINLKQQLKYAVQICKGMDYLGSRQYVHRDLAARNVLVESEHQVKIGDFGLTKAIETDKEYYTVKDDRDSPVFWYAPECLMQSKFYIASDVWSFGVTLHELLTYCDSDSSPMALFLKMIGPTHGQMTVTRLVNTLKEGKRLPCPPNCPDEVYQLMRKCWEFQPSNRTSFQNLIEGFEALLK
Chain of JAK1/TYK2 (P29597 whole entry): as the sequence (P29597 whole entry, the tested form may be a part) above
Chain of Tyrosine-protein kinase JAK1 (P23458 whole entry, the tested form may be a part): as the sequence (P23458 whole entry) above
T1 sequence (P23458 whole entry, one chain of several, the tested form may be a part): as the sequence (P23458 whole entry) above
Chain of Tyrosine-protein kinase Lck (P06239 whole entry): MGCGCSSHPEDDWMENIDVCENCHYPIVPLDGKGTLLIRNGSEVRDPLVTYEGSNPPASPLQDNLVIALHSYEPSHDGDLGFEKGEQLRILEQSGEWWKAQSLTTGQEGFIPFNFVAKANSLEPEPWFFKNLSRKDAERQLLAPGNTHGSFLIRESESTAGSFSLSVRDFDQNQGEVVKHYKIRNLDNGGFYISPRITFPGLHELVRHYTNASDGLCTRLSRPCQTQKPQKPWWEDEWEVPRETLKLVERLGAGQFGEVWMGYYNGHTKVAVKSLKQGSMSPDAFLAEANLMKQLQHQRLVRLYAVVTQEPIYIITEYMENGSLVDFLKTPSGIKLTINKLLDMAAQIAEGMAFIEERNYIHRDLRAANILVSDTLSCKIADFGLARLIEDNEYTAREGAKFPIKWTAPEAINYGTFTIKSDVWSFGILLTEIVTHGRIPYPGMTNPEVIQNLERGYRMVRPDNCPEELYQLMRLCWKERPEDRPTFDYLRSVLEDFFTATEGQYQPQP
Chain of Glycogen synthase kinase-3 beta (P49841 whole entry): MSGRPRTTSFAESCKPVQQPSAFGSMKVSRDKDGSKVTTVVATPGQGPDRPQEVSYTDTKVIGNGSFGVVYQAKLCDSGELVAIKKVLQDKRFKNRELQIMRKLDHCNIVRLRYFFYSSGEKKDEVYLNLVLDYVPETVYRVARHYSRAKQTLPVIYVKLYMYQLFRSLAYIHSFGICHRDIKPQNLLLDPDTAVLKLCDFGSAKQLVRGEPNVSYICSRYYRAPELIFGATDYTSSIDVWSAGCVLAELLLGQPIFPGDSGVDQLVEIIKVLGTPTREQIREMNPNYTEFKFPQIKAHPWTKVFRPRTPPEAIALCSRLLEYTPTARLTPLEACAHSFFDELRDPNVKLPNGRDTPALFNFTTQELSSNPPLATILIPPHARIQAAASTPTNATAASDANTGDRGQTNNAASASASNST
Description for in vitro: Intrinsic clearance in human liver microsomes

The term IC50 denotes the concentration that inhibits the measured activity by half. As for `NC(=O)c1cnc(Nc2ccc(O)cn2)cc1Nc1ccccc1Cl`, the IC50 at JAK1/TYK2 was 290 nM; on JAK3/JAK1 [1], 525 nM; in series [2], 14 nM; in [3], 20 nM; in series [4], 20 nM; on JAK3/JAK1 [5], 218 nM.
Take `COc1cccc(Nc2cc(Nc3ccccc3Cl)c(C(N)=O)cn2)n1`: the half-maximal inhibitory concentration (IC50) at JAK1/TYK2 worked out at 271 nM; against JAK3/JAK1 [1], 2170 nM; in [2], 103 nM; in series [3], 76 nM; in series [4], 89 nM; in series [6], 77 nM. Besides, on JAK3/JAK1 [5], the half-inhibitory concentration (IC50) worked out at 169 nM.
A word on the pKa: it is the negative logarithm of the acid dissociation constant. A high value points to a weaker acid or stronger base. For the compound `Cc1cccc(Nc2cc(Nc3ccccc3Cl)c(C(N)=O)cn2)n1`, the half-maximal inhibitory concentration (IC50) in series [6] was determined as 60 nM. The pKa in series [7] was 6.2.
In the case of `NC(=O)c1cnc(Nc2cccc(O)n2)cc1Nc1ccccc1Cl`, the IC50 in series [8] is above 2500 nM; at JAK1/TYK2, above 10000 nM; against JAK3/JAK1 [1] it was above 30000 nM; in [2] it was 3270 nM; in [3], 3150 nM; in [4] it was 4560 nM. Moreover, the IC50 was 2090 nM in series [6]; above 10000 nM on JAK3/JAK1 [5]; above 2500 nM in series [9]; above 2500 nM against Aurora kinase A; above 2500 nM in series [10]; above 2500 nM in [11]. For the same compound, the IC50 in [12], in series [13] and in series [14] was above 2500 nM each time.
Take `CCOC(=O)Oc1cccc(Nc2cc(Nc3ccccc3Cl)c(C(N)=O)cn2)n1`: the IC50 was 71 nM at JAK1/TYK2; above 30000 nM against JAK3/JAK1 [1]; 131 nM in series [2]; 52 nM in [3]; 76 nM in series [4]; 59 nM in series [6]. Also, the IC50 on JAK3/JAK1 [5] was found to be 116 nM.
A word on the microsomal CLint: it is a measure of how fast metabolising enzymes remove a compound, apart from limits set by blood flow. A higher microsomal CLint goes with faster metabolism. For `C[C@H]1CN(C(=O)CC#N)[C@]12CCN(c1ncnc3[nH]ccc13)C2` [DELGOCITINIB], the microsomal CLint in the series “in vitro” is below 25 µL/min/mg.
